These results are taken from ChEMBL document CHEMBL3120135, “Inhibition of glutamate racemase by substrate-product analogues” (Bioorg Med Chem Lett, 2014).

Experiment [1] relates to Fusobacterium nucleatum. The experiment can be described thus: Inhibition of Fusobacterium nucleatum recombinant N-terminal hexahistidine-tagged glutamate racemase expressed in Escherichia coli BL21 (DE3) using L-glutamate as substrate at 64 mM by circular dichroism based assay. A general note: CD spectra are sensitive to the conformation of chiral molecules.
The nature of experiment [2]: Inhibition of Fusobacterium nucleatum recombinant N-terminal hexahistidine-tagged glutamate racemase expressed in Escherichia coli BL21 (DE3) using L-glutamate as substrate by circular dichroism based assay.
Experiment [3] has as its system Fusobacterium nucleatum. The experiment can be described thus: Inhibition of Fusobacterium nucleatum recombinant N-terminal hexahistidine-tagged glutamate racemase expressed in Escherichia coli BL21 (DE3) using L-glutamate as substrate at 40 mM by circular dichroism based assay.
Experiment [4] can be described thus: Partial noncompetitive inhibition of Fusobacterium nucleatum recombinant N-terminal hexahistidine-tagged glutamate racemase expressed in Escherichia coli BL21 (DE3) using L-glutamate as substrate by Michaelis-Menten plot analysis.
Experiment [5] can be described thus: (§1) Mixed-type inhibition of Fusobacterium nucleatum recombinant N-terminal hexahistidine-tagged glutamate racemase expressed in Escherichia coli BL21 (DE3) using L-glutamate as substrate by Michaelis-Menten plot analysis.
For experiment [6], the system named is Fusobacterium nucleatum. The experiment is described as §1.
Experiment [7] concerns Fusobacterium nucleatum. The experiment can be described thus: Inhibition of Fusobacterium nucleatum recombinant N-terminal hexahistidine-tagged glutamate racemase expressed in Escherichia coli BL21 (DE3) using L-glutamate as substrate at 50 mM by circular dichroism based assay.
Experiment [8] is described as follows: Noncompetitive inhibition of Bacillus subtilis glutamate racemase.
Experiment [9] can be described thus: Inhibition of Bacillus subtilis glutamate racemase.

A word on the inhibition: it is the drop in the measured response relative to a control, in per cent. What is called IC50 is the point on the concentration scale where inhibition reaches its midpoint. What is called Ki is the dissociation constant of the complex between target and ligand, obtained from inhibition or displacement.

Consider `NC(CCP(=O)(O)O)C(=O)O` (racemic), for which, in the experiment on Fusobacterium nucleatum [1], the inhibition was determined as 15%.

As for `NC1(C(=O)O)CCS(=O)(=O)CC1`, the half-maximal inhibitory concentration (IC50) in experiment [2] was 215 mM. Also, the inhibition in the experiment on Fusobacterium nucleatum [3] turned out to be 30%.

On to `NC1(C(=O)O)CCP(=O)(O)CC1` (stereo not drawn), for which the Ki in [4] came out at 3.1 mM. Further, in experiment [2], the half-inhibitory concentration (IC50) was 24.1 mM.

Take `O=C1CCP(=O)(O)CC1`: the IC50 in experiment [2] came to 47.7 mM.

Regarding `O=C1CCS(=O)(=O)CC1`, in [2], the IC50 is 21.2 mM. The Ki in [5] worked out at 18.4 mM. Further, the alphaKi with Fusobacterium nucleatum [6] was found to be 28 mM.

`O=C(O)CCP(=O)(O)CCC(=O)O`: the inhibition in the experiment with Fusobacterium nucleatum [7] is 40%. For the same compound, the concentration for half-maximal inhibition (IC50) in [2] is 60.4 mM.

As to `O=C(O)c1cccc(C(=O)O)n1` [DIPICOLINIC ACID], the inhibition constant Ki in experiment [8] stood at 0.092 mM; in experiment [9] it was 2.7 mM.
